Assay results reported in ChEMBL document CHEMBL5346903, “Discovery of novel and bioavailable histone deacetylases and cyclin-dependent kinases dual inhibitor to impair the stemness of leukemia cells” (Eur J Med Chem, 2023).

Legend:
Histone deacetylase 2 = Histone deacetylase 2 (Homo sapiens, UniProt Q92769); assay: Inhibition of HDAC2 in human nuclear extract using Ac-Arg-Gly-Lys(Ac)-AMC as substrate at 1 uM incubated overnight by fluorescence based assay relative to control; type: subcellular; settings: HeLa, Nucleus
Histone deacetylase 2, sequence (Q92769 whole entry): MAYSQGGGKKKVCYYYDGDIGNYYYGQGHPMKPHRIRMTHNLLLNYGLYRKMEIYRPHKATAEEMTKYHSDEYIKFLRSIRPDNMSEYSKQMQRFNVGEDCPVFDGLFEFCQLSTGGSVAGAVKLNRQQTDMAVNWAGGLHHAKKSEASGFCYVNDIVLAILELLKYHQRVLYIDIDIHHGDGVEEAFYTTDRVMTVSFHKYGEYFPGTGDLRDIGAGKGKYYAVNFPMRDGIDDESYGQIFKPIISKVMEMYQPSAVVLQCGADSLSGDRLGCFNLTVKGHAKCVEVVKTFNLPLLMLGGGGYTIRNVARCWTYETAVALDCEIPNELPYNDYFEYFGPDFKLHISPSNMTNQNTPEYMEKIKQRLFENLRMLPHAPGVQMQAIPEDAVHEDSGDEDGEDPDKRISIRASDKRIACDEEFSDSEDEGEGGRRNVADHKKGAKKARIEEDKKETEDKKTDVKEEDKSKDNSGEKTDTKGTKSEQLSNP

U-937 [1] = assay: Antiproliferative activity against human U-937 cells incubated for 72 hrs by CCK8 assay; type: functional, cell-based; settings: U-937, 72 h
HL-60 [2] = assay: Antiproliferative activity against human HL-60 cells incubated for 72 hrs by CCK8 assay; type: functional, cell-based; settings: HL-60, 72 h
[3] = Antiproliferative activity against human SKNO-1 cells incubated for 72 hrs by CCK8 assay; type: functional, cell-based; settings: SKNO-1, 72 h
Kasumi 1 [4] = assay: Antiproliferative activity against human Kasumi 1 cells incubated for 72 hrs by CCK8 assay; type: functional, cell-based; settings: Kasumi 1, 72 h
Histone deacetylase 1 = Histone deacetylase 1 (Homo sapiens, UniProt Q13547); assay: Inhibition of recombinant human HDAC1 using HDAC substrate incubated for 30 mins by fluorescence based assay
Histone deacetylase 1, sequence (Q13547 whole entry): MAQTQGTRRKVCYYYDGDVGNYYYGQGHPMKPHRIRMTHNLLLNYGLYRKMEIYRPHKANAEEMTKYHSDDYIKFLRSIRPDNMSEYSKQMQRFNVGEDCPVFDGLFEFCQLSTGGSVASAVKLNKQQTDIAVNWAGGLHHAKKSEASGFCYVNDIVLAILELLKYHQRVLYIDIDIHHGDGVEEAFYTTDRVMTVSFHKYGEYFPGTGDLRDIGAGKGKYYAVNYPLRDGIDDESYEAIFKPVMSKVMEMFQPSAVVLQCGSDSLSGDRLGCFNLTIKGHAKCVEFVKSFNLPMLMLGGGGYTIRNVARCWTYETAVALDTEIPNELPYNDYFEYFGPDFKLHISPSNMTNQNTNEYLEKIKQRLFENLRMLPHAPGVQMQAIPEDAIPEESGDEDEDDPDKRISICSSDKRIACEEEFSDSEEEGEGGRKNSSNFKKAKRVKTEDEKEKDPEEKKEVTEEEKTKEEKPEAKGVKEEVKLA

Histone deacetylase 5 = Histone deacetylase 5 (Homo sapiens, UniProt Q9UQL6); assay: Inhibition of recombinant human HDAC5 using HDAC substrate incubated for 30 mins by fluorescence based assay
Histone deacetylase 5, sequence (Q9UQL6 whole entry): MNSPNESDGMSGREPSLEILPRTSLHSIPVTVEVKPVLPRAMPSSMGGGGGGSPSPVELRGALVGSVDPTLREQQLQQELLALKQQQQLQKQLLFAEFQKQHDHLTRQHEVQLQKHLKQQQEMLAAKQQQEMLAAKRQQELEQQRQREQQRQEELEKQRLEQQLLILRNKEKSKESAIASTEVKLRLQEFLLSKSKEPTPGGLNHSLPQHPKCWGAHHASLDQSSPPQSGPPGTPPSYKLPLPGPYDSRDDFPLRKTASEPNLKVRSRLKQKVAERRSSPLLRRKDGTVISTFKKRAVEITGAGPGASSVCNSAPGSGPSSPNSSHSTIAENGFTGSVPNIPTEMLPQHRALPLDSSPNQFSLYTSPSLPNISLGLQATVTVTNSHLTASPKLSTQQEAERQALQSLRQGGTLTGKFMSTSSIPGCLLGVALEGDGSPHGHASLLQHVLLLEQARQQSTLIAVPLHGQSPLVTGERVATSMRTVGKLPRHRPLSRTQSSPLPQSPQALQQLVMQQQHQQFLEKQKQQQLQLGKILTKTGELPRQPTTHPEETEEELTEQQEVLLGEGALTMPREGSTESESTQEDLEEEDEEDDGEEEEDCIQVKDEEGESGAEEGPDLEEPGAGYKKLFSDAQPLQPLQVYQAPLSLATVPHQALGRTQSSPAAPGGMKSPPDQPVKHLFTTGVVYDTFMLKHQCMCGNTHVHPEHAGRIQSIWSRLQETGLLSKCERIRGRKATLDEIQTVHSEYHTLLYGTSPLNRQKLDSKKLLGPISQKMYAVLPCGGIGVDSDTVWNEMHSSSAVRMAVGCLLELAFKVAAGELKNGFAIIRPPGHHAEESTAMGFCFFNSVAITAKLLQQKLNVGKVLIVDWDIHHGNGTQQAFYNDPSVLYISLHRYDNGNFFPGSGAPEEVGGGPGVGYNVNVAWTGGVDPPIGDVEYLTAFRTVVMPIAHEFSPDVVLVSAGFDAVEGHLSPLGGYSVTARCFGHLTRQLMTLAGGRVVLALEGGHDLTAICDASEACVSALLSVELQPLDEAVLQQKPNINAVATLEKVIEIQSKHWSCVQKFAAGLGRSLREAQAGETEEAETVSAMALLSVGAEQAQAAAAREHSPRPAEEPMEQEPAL

[5] = biological target: Protein deacetylase HDAC6 (Homo sapiens, UniProt Q9UBN7); assay: Inhibition of recombinant human HDAC6 using HDAC substrate incubated for 30 mins by fluorescence based assay
Protein deacetylase HDAC6, sequence (Q9UBN7 whole entry): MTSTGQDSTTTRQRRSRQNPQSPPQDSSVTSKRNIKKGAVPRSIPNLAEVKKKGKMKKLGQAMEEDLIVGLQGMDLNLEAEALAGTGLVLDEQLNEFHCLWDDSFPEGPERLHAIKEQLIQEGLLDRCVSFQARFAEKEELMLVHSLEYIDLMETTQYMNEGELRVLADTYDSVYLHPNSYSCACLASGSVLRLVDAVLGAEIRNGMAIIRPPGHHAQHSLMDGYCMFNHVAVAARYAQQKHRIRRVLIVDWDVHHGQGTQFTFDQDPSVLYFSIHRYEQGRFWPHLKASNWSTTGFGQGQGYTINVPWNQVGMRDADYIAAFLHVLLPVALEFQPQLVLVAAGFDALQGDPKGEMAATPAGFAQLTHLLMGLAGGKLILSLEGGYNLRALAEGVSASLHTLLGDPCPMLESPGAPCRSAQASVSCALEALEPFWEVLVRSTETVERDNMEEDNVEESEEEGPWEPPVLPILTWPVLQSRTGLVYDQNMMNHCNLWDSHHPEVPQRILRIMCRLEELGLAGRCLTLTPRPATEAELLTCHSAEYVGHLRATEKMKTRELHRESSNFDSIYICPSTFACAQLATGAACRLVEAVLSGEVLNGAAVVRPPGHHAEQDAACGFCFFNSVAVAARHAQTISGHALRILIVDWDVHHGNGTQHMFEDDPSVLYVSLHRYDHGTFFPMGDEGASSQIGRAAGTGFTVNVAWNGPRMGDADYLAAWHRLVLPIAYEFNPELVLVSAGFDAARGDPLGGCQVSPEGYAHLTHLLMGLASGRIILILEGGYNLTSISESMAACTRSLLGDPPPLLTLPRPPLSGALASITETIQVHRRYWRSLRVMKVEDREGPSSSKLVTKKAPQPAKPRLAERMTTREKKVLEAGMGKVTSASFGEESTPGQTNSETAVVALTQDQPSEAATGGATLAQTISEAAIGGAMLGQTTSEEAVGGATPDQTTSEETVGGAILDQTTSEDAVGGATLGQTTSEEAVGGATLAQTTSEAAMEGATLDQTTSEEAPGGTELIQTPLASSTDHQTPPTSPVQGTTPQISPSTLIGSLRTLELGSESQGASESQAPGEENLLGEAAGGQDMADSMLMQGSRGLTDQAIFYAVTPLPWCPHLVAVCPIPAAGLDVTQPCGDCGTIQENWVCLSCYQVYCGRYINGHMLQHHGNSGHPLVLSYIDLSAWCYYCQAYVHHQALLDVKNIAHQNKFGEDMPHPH

Histone deacetylase 7 = Histone deacetylase 7 (Homo sapiens, UniProt Q8WUI4); assay: Inhibition of recombinant human HDAC7 using HDAC substrate incubated for 30 mins by fluorescence based assay
Histone deacetylase 7, sequence (Q8WUI4 whole entry): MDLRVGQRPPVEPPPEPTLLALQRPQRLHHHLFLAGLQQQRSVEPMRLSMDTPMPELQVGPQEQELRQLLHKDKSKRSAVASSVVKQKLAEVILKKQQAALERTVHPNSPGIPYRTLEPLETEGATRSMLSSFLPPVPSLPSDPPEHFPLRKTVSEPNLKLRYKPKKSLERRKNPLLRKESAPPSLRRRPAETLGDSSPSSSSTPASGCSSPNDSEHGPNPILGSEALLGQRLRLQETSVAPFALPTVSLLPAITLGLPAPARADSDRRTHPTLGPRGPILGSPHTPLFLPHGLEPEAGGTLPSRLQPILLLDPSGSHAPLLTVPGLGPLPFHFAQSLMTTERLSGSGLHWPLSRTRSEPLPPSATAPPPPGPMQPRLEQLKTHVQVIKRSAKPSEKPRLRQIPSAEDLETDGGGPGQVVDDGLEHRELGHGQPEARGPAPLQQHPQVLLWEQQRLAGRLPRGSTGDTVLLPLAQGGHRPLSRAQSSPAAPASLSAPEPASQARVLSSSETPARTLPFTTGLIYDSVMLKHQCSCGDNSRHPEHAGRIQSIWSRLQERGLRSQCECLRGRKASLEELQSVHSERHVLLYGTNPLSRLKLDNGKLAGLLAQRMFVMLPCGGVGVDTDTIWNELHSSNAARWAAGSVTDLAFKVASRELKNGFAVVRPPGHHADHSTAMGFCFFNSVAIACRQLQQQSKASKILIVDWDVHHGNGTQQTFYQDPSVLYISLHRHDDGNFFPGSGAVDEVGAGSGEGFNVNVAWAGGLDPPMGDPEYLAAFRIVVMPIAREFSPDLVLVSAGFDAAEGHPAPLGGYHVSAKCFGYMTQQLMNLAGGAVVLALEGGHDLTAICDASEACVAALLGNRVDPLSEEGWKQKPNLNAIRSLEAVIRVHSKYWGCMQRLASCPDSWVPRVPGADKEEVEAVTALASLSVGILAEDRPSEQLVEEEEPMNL

[6] = biological target: Cyclin-dependent kinase 5/CDK5 activator 1 (Homo sapiens) (UniProt Q00535+Q15078); assay: Inhibition of CDK5/p35NCK (unknown origin) at 100 nM preincubated for 20 mins followed by [gamma-33P]ATP addition measured after 120 mins in presence of ATP by Hot-SpotSM kinase assay relative to control; type: protein-complex assay; settings: time 140.0 min
Cyclin-dependent kinase 5/CDK5 activator 1 (Homo sapiens), sequence (Q00535 whole entry): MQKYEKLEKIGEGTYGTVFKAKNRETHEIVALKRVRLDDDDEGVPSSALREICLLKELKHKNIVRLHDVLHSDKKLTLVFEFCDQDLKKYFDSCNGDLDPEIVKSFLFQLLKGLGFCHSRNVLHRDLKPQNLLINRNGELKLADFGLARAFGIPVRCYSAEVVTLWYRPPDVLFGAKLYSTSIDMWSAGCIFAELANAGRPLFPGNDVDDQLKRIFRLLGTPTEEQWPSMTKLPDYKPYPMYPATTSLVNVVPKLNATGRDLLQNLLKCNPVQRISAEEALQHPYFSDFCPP
Cyclin-dependent kinase 5/CDK5 activator 1 (Homo sapiens), sequence (Q15078 99-307 partner limits assumed): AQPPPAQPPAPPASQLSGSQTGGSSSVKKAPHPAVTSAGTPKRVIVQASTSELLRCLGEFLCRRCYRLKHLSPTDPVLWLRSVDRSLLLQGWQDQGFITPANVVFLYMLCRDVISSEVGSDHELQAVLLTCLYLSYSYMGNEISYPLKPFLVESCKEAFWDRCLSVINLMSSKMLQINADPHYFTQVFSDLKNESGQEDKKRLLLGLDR

[7] = biological target: CDK6/cyclin D1 (Homo sapiens) (UniProt P24385+Q00534); assay: Inhibition of CDK6/cyclinD1 (unknown origin) at 100 nM preincubated for 20 mins followed by [gamma-33P]ATP addition measured after 120 mins in presence of ATP by Hot-SpotSM kinase assay relative to control; type: protein-complex assay; settings: time 140.0 min
HL-60 [8] = assay: Induction of apoptosis in human HL-60 cells assessed as viable cells at 0.2 uM incubated for 48 hrs by annexin V-FITC/PI satining based flow cytometry (reference value: 97.4 %); type: functional; settings: read-out: Activity
HL-60 [9] = assay: Induction of apoptosis in human HL-60 cells assessed as viable cells at 0.5 uM incubated for 48 hrs by annexin V-FITC/PI satining based flow cytometry (reference value: 97.4 %); type: functional; settings: read-out: Activity
HL-60 [10] = assay: Induction of apoptosis in human HL-60 cells assessed as early apoptotic cells at 0.2 uM incubated for 48 hrs by annexin V-FITC/PI satining based flow cytometry (reference value: 1.24 %); type: functional
HL-60 [11] = assay: Induction of apoptosis in human HL-60 cells assessed as late apoptotic cells at 0.5 uM incubated for 48 hrs by annexin V-FITC/PI satining based flow cytometry (reference value: 1.33 %); type: functional
HL-60 [12] = assay: Induction of apoptosis in human HL-60 cells assessed as necrotic cells at 2 uM incubated for 48 hrs by annexin V-FITC/PI satining based flow cytometry (reference value: 0.00 %); type: functional
U-937 [13] = assay: Induction of apoptosis in human U-937 cells assessed as early apoptotic cells at 0.5 uM incubated for 48 hrs by annexin V-FITC/PI satining based flow cytometry (reference value: 0.945 %); type: functional
U-937 [14] = assay: Induction of apoptosis in human U-937 cells assessed as early apoptotic cells at 1 uM incubated for 48 hrs by annexin V-FITC/PI satining based flow cytometry (reference value: 0.945 %); type: functional
U-937 [15] = assay: Induction of apoptosis in human U-937 cells assessed as late apoptotic cells at 1 uM incubated for 48 hrs by annexin V-FITC/PI satining based flow cytometry (reference value: 7.10 %); type: functional
U-937 [16] = assay: Induction of apoptosis in human U-937 cells assessed as late apoptotic cells at 2 uM incubated for 48 hrs by annexin V-FITC/PI satining based flow cytometry (reference value: 7.10 %); type: functional
U-937 [17] = assay: Inhibition of colony formation in human U-937 cells treated for 15 days by soft agar assay; type: functional, cell-based; settings: time 15.0 day
HL-60 [18] = assay: Inhibition of colony formation in human HL-60 cells treated for 15 days by soft agar assay; type: functional, cell-based; settings: time 15.0 day
HL-60 [19] = assay: Induction of differentiation in human HL-60 cells assessed as increase in CD11b positive cells at 1.5 uM incubated for 24 hrs by FITC staining based flow cytometry (reference value: 1.45 %); type: functional
[20] = biological target: CDK2/Cyclin A2 (Homo sapiens) (UniProt P24941+P20248); settings: dose 100.0 nM, time 140.0 min
[21] = biological target: Cyclin-dependent kinase 2/cyclin E1 (Homo sapiens) (UniProt P24864+P24941); settings: dose 100.0 nM, time 140.0 min
HL-60 [22] = assay: Induction of apoptosis in human HL-60 cells assessed as viable cells at 0.6 uM incubated for 48 hrs by annexin V-FITC/PI satining based flow cytometry (reference value: 94.7 %); type: functional; settings: read-out: Activity
HL-60 [23] = assay: Induction of apoptosis in human HL-60 cells assessed as viable cells at 2.5 uM incubated for 48 hrs by annexin V-FITC/PI satining based flow cytometry (reference value: 94.7 %); type: functional; settings: read-out: Activity
HL-60 [24] = assay: Induction of apoptosis in human HL-60 cells assessed as viable cells at 5 uM incubated for 48 hrs by annexin V-FITC/PI satining based flow cytometry (reference value: 94.7 %); type: functional; settings: read-out: Activity
HL-60 [25] = assay: Induction of apoptosis in human HL-60 cells assessed as necrotic cells at 0.6 uM incubated for 48 hrs by annexin V-FITC/PI satining based flow cytometry (reference value: 0.04 %); type: functional
HL-60 [26] = assay: Induction of apoptosis in human HL-60 cells assessed as necrotic cells at 5 uM incubated for 48 hrs by annexin V-FITC/PI satining based flow cytometry (reference value: 0.04 %); type: functional
U-937 [27] = assay: Induction of apoptosis in human U-937 cells assessed as early apoptotic cells at 0.6 uM incubated for 48 hrs by annexin V-FITC/PI satining based flow cytometry (reference value: 1.93 %); type: functional
U-937 [28] = assay: Induction of apoptosis in human U-937 cells assessed as early apoptotic cells at 5 uM incubated for 48 hrs by annexin V-FITC/PI satining based flow cytometry (reference value: 1.93 %); type: functional
U-937 [29] = assay: Induction of apoptosis in human U-937 cells assessed as late apoptotic cells at 5 uM incubated for 48 hrs by annexin V-FITC/PI satining based flow cytometry (reference value: 4.23 %); type: functional
HL-60 [30] = assay: Induction of differentiation in human HL-60 cells assessed as increase in CD11b positive cells at 2.5 uM incubated for 24 hrs by FITC staining based flow cytometry (reference value: 1.12 %); type: functional
Kasumi 1 [31] = assay: Cytotoxicity against human Kasumi 1 cells assessed as CD34positive CD38negative leukemic stem cell-like cells sub-population at 0.5 uM incubated for 24 hrs by APC/FITC satining based flow cytometry (reference value: 95.8 %); type: functional

## Nc1ccccc1NC(=O)c1ccc(NC(=O)c2n[nH]cc2NC(=O)c2c(Cl)cccc2Cl)cc1
Histone deacetylase 2
  inhibition: 100%
U-937 [1]
  IC50: 720 nM
HL-60 [2]
  IC50: 1430 nM
[3]
  IC50: 1630 nM
Kasumi 1 [4]
  IC50: 890 nM
Histone deacetylase 1
  IC50: 35.7 nM
Histone deacetylase 5
  IC50: > 1000 nM
[5]
  IC50: 723 nM
Histone deacetylase 7
  IC50: > 1000 nM
[6]
  inhibition: 90.7%
[7]
  inhibition: 58.2%
HL-60 [8]
  viability at 0.2 µM: 96.4%
HL-60 [9]
  viability at 0.5 µM: 94.4%
HL-60 [10]
  Activity: 1.61%
HL-60 [11]
  Activity: 3.16%
HL-60 [12]
  Activity: 4.87%
U-937 [13]
  Activity: 1.99%
U-937 [14]
  Activity: 1.92%
U-937 [15]
  Activity: 34.1%
U-937 [16]
  Activity: 88.7%
U-937 [17]
  inhibition: Dose-Dependent Effect
HL-60 [18]
  inhibition: Dose-Dependent Effect
HL-60 [19]
  Activity: 50.9%
[20]
  inhibition: 69.1%
[21]
  inhibition: 57.5%

## Nc1cc(F)ccc1NC(=O)c1ccc(CNC(=O)/C=C/c2cccnc2)cc1 [TUCIDINOSTAT]
U-937 [1]
  IC50: 4660 nM
HL-60 [2]
  IC50: 3110 nM
[3]
  IC50: 5570 nM
Kasumi 1 [4]
  IC50: > 10000 nM
HL-60 [22]
  viability at 0.6 µM: 95.1%
HL-60 [23]
  viability at 2.5 µM: 56.1%
HL-60 [24]
  viability at 5 µM: 18.1%
HL-60 [25]
  Activity: 0.07%
HL-60 [26]
  Activity: 0.353%
U-937 [27]
  Activity: 1.65%
U-937 [28]
  Activity: 4.66%
U-937 [29]
  Activity: 22.7%
U-937 [17]
  inhibition: Dose-Dependent Effect
HL-60 [18]
  inhibition: Dose-Dependent Effect
HL-60 [30]
  Activity: 53.5%
Kasumi 1 [31]
  Activity: 93.9%
